# In patent US11964980B2, “Crystalline forms of (S)-1-(4-fluorophenyl)-1-(2-(4-(6-(1-methyl-1H-pyrazol-4-yl)pyrrolo[2,1- f][1,2,4]triazin-4-yl)piperazinyl)-pyrimidin-5-yl)ethan-1-amine and methods of making” (Blueprint Medicines Corporation, priority 2019, dated 2024):
# “Also recorded” adds a separate entry of the source.
# Key:
# [1] = system: patients with indolent systemic mastocytosis; experiment: Phase 2 PIONEER trial Part 1: ISM-SAF symptom scores and MC-QoL; format: in vivo, human
# Method: (§1) This is a Phase 2, randomized, double-blind, placebo-controlled study comparing the efficacy and safety of Compound (I)+best supportive care (BSC) with placebo+BSC in patients with ISM and SSM whose symptoms are not adequately controlled by BSC. The study is conducted in three parts. In Part 1, the optimal dose Compound (I) (recommended phase 2 dose (RP2D)) was identified in patients with ISM. In Part 2, patients with ISM and SSM are randomly assigned to the RP2D of Compound (I) identified in Part 1+BSC, or to matching placebo+BSC. In Part 3, patients who have completed treatment in Part 1 or Part 2 of the study participate in a long-term extension, receiving Compound (I) at the RP2D+BSC.
# In Part 1, immediately after informed consent was obtained, management of SM symptoms was optimized, and BSC medication doses and schedules for SM symptom management were stabilized, if needed, over four weeks. Within five days after informed consent is obtained, ISM-SAF (ISM Symptom Assessment Form) data collection begins. The number of anaphylactic episodes treated with epinephrine and all concomitant medications received for any indication were collected from the time of informed consent.
# Once BSC was optimized (between Day −98 and Day −71) and doses were stable for ≥14 days, ISM-SAF data was collected for an additional 14 days to determine eligibility based on symptom severity i.e., to identify ISM and SSM patients having moderate-to-severe symptoms. Patients not meeting the symptom severity threshold were deemed screen failures and were not eligible for study participation. Patients having moderate-to-severe symptoms and meeting the threshold for symptom severity began other screening procedures, including the following: Bone marrow (BM) biopsy (an archival sample obtained within the preceding 24 weeks or a fresh sample) and skin biopsy of lesional and nonlesional skin (in patients with cutaneous mastocytosis (CM)) were performed for confirmation of SM diagnosis and quantification of mast cells (MCs); patients with CM (maculopapular) had skin photographs taken. Additional procedures include: magnetic resonance imaging/computed tomography scan of the brain; bone densitometry; serum tryptase, KIT D816 mutation testing; routine laboratory testing; ECG; and physical examination. All procedures are completed within a 6-week period before the final 14-day collection of baseline ISM-SAF symptoms is initiated.
# Once screening procedures were completed, patients had ISM-SAF data collected for another 2 weeks (14 days) to establish baseline scores, after which patients meeting all eligibility requirements were randomly assigned to treatment and began dosing.
# (§2) In Part 1 of the study, approximately 40 patients were randomly assigned to 1 of 3 doses of Compound (I) or to placebo. Each dose-level cohort and placebo group in Part 1 was composed of 10 patients. The 3 dose levels of Compound (I) were tested in parallel: 25, 50, and 100 mg. Patients, study staff, and the Sponsor were blinded to treatment assignment.
# (§3) Compound (I) was administered orally, once a day in continuous 28-day cycles. Patients were assessed weekly for the first 4 weeks, then every 4 weeks (until the RP2D was determined) for safety, laboratory monitoring, and quality of life (QoL) assessments. Intensive pharmacokinetic (PK) sampling was performed in all patients. The ISM-SAF was completed once a day. After completion of 12 weeks of treatment, BM and skin biopsy were repeated for MC quantification and skin photographs were taken in patients with baseline CM.
# The RP2D was determined based on the efficacy, safety, and PK at each dose level. The primary evaluation of efficacy was the symptom improvement using the ISM-SAF. The primary criterion for selection of the RP2D was the dose of Compound (I) that produces the maximum reduction in total symptom score (TSS), as assessed using the ISM-SAF at Week 12 compared with Baseline (Day −14 to Day −1). […]
# [2] = system: patients with indolent systemic mastocytosis; experiment: Phase 2 PIONEER trial Part 1: safety; format: in vivo, human
# Method: as §1, §2, §3
# Part 1 of the PIONEER trial was designed to determine the RP2D by evaluating three doses of Compound (I) (25 mg, 50 mg and 100 mg QD) versus placebo. Key eligibility criteria include adults with ISM confirmed by central pathology review of bone marrow biopsy (according to WHO criteria) and moderate-to-severe symptom burden despite best supportive care medicines. Overall, 39 patients were enrolled in Part 1 across four concurrent cohorts, consisting of 10 patients each in the Compound (I) dose cohorts and nine patients in the placebo cohort.
smiles,measurement,setting,value
"Cn1cc(-c2cc3c(N4CCN(c5ncc([C@@](C)(N)c6ccc(F)cc6)cn5)CC4)ncnn3c2)cn1 [Compound (I), (S)-1-(4-fluorophenyl)-1-(2-(4-(6-(1-methyl-1H-pyrazol-4-yl)pyrrolo[2,1-f][1,2,4]triazin-4-yl)piperazin-1-yl)pyrimidin-5-yl)ethan-1-amine]",Mean percent change in ISM-SAF TSS,"[1]; 25 mg QD (n = 9), at 16 weeks",−31%
same,Mean percent change in ISM-SAF gastrointestinal domain,"[1]; 25 mg QD (n = 9), at 16 weeks",−25%
same,Mean percent change in ISM-SAF neurological symptoms,"[1]; 25 mg QD (n = 9), at 16 weeks",−26%
same,Mean percent change in ISM-SAF skin domain,"[1]; 25 mg QD (n = 9), at 16 weeks",−37%
same,Mean reduction in total MC-QoL score,"[1]; 25 mg QD (seven patients), 16 weeks",34%
same,"Mean reduction in total symptom score (TSS), ISM-SAF","[1]; 25 mg QD, baseline to 16 weeks",31%
same,"Quality of life, MC-QoL overall score and domain scores","[1]; 25 mg QD, week 16",improvements in quality of life; also recorded: improvements in all four domains
same,Reduction in ISM-SAF TSS and each symptom in the total domain score,"[1]; 25 mg once daily, 16 weeks",statistically significant reduction
same,Mean improvement in ISM-SAF TSS,"[1]; across all Compound (I) dose cohorts, 16 weeks, p=0.001 vs placebo",approximately 30%
same,Grade of all adverse events reported,[2]; 25 mg QD dose cohort,Grade 1 or 2
same,"Patients with serious AEs, Grade 3 or higher AEs, or dose modifications",[2]; 25 mg QD dose cohort,No patients
same,Grade ≥3 AEs,[2]; 25 mg once daily cohort,No grade ≥3 AEs
same,% of subjects with ≥1 AE,"[2]; 25 mg, n = 10, any grade",100%
same,AE Bone Pain,"[2]; 25 mg, n = 10, any grade",0%
same,AE Diarrhea,"[2]; 25 mg, n = 10, any grade",0%
same,AE Dizziness,"[2]; 25 mg, n = 10, any grade",30%
same,AE Face edema,"[2]; 25 mg, n = 10, any grade",10%
same,AE Fatigue,"[2]; 25 mg, n = 10, any grade",40%
same,AE Headache,"[2]; 25 mg, n = 10, any grade",30%
same,AE Nausea,"[2]; 25 mg, n = 10, any grade",10%
same,AE Periorbital edema,"[2]; 25 mg, n = 10, any grade",0%
same,AE Peripheral edema,"[2]; 25 mg, n = 10, any grade",10%
same,% of subjects with ≥1 AE,"[2]; 25 mg, n = 10, grade 3",0%
same,AE Bone Pain,"[2]; 25 mg, n = 10, grade 3",0%
same,AE Diarrhea,"[2]; 25 mg, n = 10, grade 3",0%
same,AE Dizziness,"[2]; 25 mg, n = 10, grade 3",0%
same,AE Face edema,"[2]; 25 mg, n = 10, grade 3",0%
same,AE Fatigue,"[2]; 25 mg, n = 10, grade 3",0%
same,AE Headache,"[2]; 25 mg, n = 10, grade 3",0%
same,AE Nausea,"[2]; 25 mg, n = 10, grade 3",0%
same,AE Periorbital edema,"[2]; 25 mg, n = 10, grade 3",0%
same,AE Peripheral edema,"[2]; 25 mg, n = 10, grade 3",0%
same,% of subjects with ≥1 AE,"[2]; 50 mg, n = 10, any grade",80%
same,AE Bone Pain,"[2]; 50 mg, n = 10, any grade",0%
same,AE Diarrhea,"[2]; 50 mg, n = 10, any grade",40%
same,AE Dizziness,"[2]; 50 mg, n = 10, any grade",30%
same,AE Face edema,"[2]; 50 mg, n = 10, any grade",0%
same,AE Fatigue,"[2]; 50 mg, n = 10, any grade",10%
same,AE Headache,"[2]; 50 mg, n = 10, any grade",30%
same,AE Nausea,"[2]; 50 mg, n = 10, any grade",60%
same,AE Periorbital edema,"[2]; 50 mg, n = 10, any grade",20%
same,AE Peripheral edema,"[2]; 50 mg, n = 10, any grade",20%
same,% of subjects with ≥1 AE,"[2]; 50 mg, n = 10, grade 3",20%
same,AE Bone Pain,"[2]; 50 mg, n = 10, grade 3",0%
same,AE Diarrhea,"[2]; 50 mg, n = 10, grade 3",10%
same,AE Dizziness,"[2]; 50 mg, n = 10, grade 3",0%
same,AE Face edema,"[2]; 50 mg, n = 10, grade 3",0%
same,AE Fatigue,"[2]; 50 mg, n = 10, grade 3",0%
same,AE Headache,"[2]; 50 mg, n = 10, grade 3",10%
same,AE Nausea,"[2]; 50 mg, n = 10, grade 3",10%
same,AE Periorbital edema,"[2]; 50 mg, n = 10, grade 3",0%
same,AE Peripheral edema,"[2]; 50 mg, n = 10, grade 3",0%
same,% of subjects with ≥1 AE,"[2]; 100 mg, n = 10, any grade",90%
same,AE Bone Pain,"[2]; 100 mg, n = 10, any grade",0%
same,AE Diarrhea,"[2]; 100 mg, n = 10, any grade",30%
same,AE Dizziness,"[2]; 100 mg, n = 10, any grade",40%
same,AE Face edema,"[2]; 100 mg, n = 10, any grade",40%
same,AE Fatigue,"[2]; 100 mg, n = 10, any grade",10%
same,AE Headache,"[2]; 100 mg, n = 10, any grade",30%
same,AE Nausea,"[2]; 100 mg, n = 10, any grade",40%
same,AE Periorbital edema,"[2]; 100 mg, n = 10, any grade",30%
same,AE Peripheral edema,"[2]; 100 mg, n = 10, any grade",20%
same,% of subjects with ≥1 AE,"[2]; 100 mg, n = 10, grade 3",40%
same,AE Bone Pain,"[2]; 100 mg, n = 10, grade 3",0%
same,AE Diarrhea,"[2]; 100 mg, n = 10, grade 3",10%
same,AE Dizziness,"[2]; 100 mg, n = 10, grade 3",0%
same,AE Face edema,"[2]; 100 mg, n = 10, grade 3",0%
same,AE Fatigue,"[2]; 100 mg, n = 10, grade 3",0%
same,AE Headache,"[2]; 100 mg, n = 10, grade 3",10%
same,AE Nausea,"[2]; 100 mg, n = 10, grade 3",0%
same,AE Periorbital edema,"[2]; 100 mg, n = 10, grade 3",0%
same,AE Peripheral edema,"[2]; 100 mg, n = 10, grade 3",0%
same,Tolerability,"[2]; all doses (25, 50, 100 mg QD)",well-tolerated
same,Discontinuation of treatment due to AEs,"[2]; all doses, as of data cutoff",no discontinuations for adverse effects; also recorded: no patients discontinued treatment due to AEs
